Here are results for 20 compounds from US6924302B2, “Substituted triazole diamine derivatives as kinase inhibitors” (Ortho McNeil Pharmaceutical, Inc., priority 2000, dated 2005).

One test deals with T1, CDK1:Cyclin-B (Homo sapiens, UniProt P06493).
T1 construct: purchased New England Biolabs 6020; host or cells: insect cells
Kind of test: CDK1 Screening Assay. It counts as biochemical. The following applies: Table 1; read-out: CDK1 IC50. The method, then: (§1) 70 μL of the kinase reaction mixture was dispensed into the well of a streptavidin coated FlashPlate™ (Cat. # SMP103, NEN, Boston, Mass.). Then 1 μL of test compound stock in 100% DMSO was added to the wells resulting in a final concentration of 1% DMSO in the reaction with a 100 μl final reaction volume. Next, CDK1:Cyclin-B protein was diluted in 50 mM Tris-HCl pH=8.0, 0.1% BSA at a concentration of 1 ng per μL and 30 μl (30 ng enzyme per test well) was added to each well to initiate the reaction. The reaction was incubated for one hour at 30° C. At the end of the 1-hour incubation, the reaction was terminated by aspirating the reaction mixture from the plate and washing the wells twice with PBS containing 100 mM EDTA. The histone-H1 biotinylated peptide substrate became immobilized on the Flashplate™ and the incorporation of ^33P-γ-ATP was measured by reading the plate on a scintillation counter. Inhibition of the enzymatic activity of CDK1 was measured by observing a reduced amount of ^33P-γ-ATP incorporated into the immobilized peptide.
Assays to test compound inhibition of other kinases were preformed using methods that measure the amount of phosphorylation of a biotinylated peptide substrate. Biotinylated peptide substrates were selected from the literature as appropriate for the enzyme being evaluated. […] Assay conditions vary slightly for each protein kinase, for example, insulin receptor kinase requires 10 mM MnCl2 for activity and Calmodulin-dependent protein kinase requires calmodulin and 10 mM CaCl2. These assay conditions are known in the art. The reaction mixture was dispensed into the wells of a streptavidin coated Flashplate and 1 μl drug stock in 100% DMSO was added to a 100 μl reaction volume resulting in a final concentration of 1% DMSO on the reaction. Enzyme was diluted in 50 mM Tris-HCl pH=8.0, 0.1% BSA and add to each well. The reaction was incubated for one hour at 30° C. in the presence of compound. After one hour the reaction mix was aspirated from the plate and the plate was washed with PBS containing 100 mM EDTA. The plate was read on a scintillation counter to determine ^33P-γ-ATP incorporated into the immobilized peptide. Test compounds were assayed in duplicate at 8 concentrations [100 uM, 10 uM, 1 uM, 100 nM, 10 nM, 1 nM, 100 pM, 10 pM]. A maximum and minimum signal for the assay was determined on each plate. The IC50 was calculated from the dose response curve of the percent inhibition of the maximum signal in the assay according to the formula [max signal—background/test compound signal—background (100)=% inhibition] by graphing the percent inhibition against the log concentration of test compound. Known inhibitor compounds appropriate for the kinase being assayed were also included on each plate. […]

For test [1], the target named is T2, VEGF-R (vascular endothelial growth factor receptor-2) (Rattus norvegicus, UniProt O08775).
T2 construct: polyhistidine (6xHIS) (N)
Kind of test: VEGF-R Screening Assay. It counts as biochemical. The note with it: Table 1; read-out: VEGF-R IC50. The method, then: as §1, with “a 100 μL final reaction” for “a 100 μl final reaction”, “volume. Next, soluble rat tyrosine kinase containing an N-terminal 6×HIS tag was diluted” for “volume. Next, CDK1:Cyclin-B protein was diluted”, “concentration of 5 ng per” for “concentration of 1 ng per”, “and 30 μL (150 ng enzyme” for “and 30 μl (30 ng enzyme”, “EDTA. The PLC1 biotinylated peptide” for “EDTA. The histone-H1 biotinylated peptide”, “activity of the VEGF-R was measured” for “activity of CDK1 was measured”
Assays to test compound inhibition of other kinases were preformed using methods that measure the amount of phosphorylation of a biotinylated peptide substrate. Biotinylated peptide substrates were selected from the literature as appropriate for the enzyme being evaluated. […] Assay conditions vary slightly for each protein kinase, for example, insulin receptor kinase requires 10 mM MnCl2 for activity and Calmodulin-dependent protein kinase requires calmodulin and 10 mM CaCl2. These assay conditions are known in the art. The reaction mixture was dispensed into the wells of a streptavidin coated Flashplate and 1 μl drug stock in 100% DMSO was added to a 100 μl reaction volume resulting in a final concentration of 1% DMSO on the reaction. Enzyme was diluted in 50 mM Tris-HCl pH=8.0, 0.1% BSA and add to each well. The reaction was incubated for one hour at 30° C. in the presence of compound. After one hour the reaction mix was aspirated from the plate and the plate was washed with PBS containing 100 mM EDTA. The plate was read on a scintillation counter to determine ^33P-γ-ATP incorporated into the immobilized peptide. Test compounds were assayed in duplicate at 8 concentrations [100 uM, 10 uM, 1 uM, 100 nM, 10 nM, 1 nM, 100 pM, 10 pM]. A maximum and minimum signal for the assay was determined on each plate. The IC50 was calculated from the dose response curve of the percent inhibition of the maximum signal in the assay according to the formula [max signal—background/test compound signal—background (100)=% inhibition] by graphing the percent inhibition against the log concentration of test compound. Known inhibitor compounds appropriate for the kinase being assayed were also included on each plate.
CDK2 in complex with cyclin A is commercially available (Upstate Biotech, Lake Placid, N.Y.). The CDK4 complex was composed of a mouse CDK4 protein and a mouse Cyclin D1 protein (The mouse CDK4 protein was genetically fused to an N-terminal Flag-epitope tag and the mouse Cyclin D1 protein was fused with an N-terminal AU-1 epitope tag. The genes encoding these proteins were transferred to commercially available baculoviral vectors. The recombinant CDK4/D1 complex was then made by co-infecting commercially available insect cells with viruses carrying these two constructs). […] ERK-1 protein (Discontinued from Calbiochem). EGFR (epidermal growth factor receptor) is purified from human A431 cell membranes (Sigma, St. Louis, Mo., Cat.# E3641).

T1 sequence (P06493 whole entry): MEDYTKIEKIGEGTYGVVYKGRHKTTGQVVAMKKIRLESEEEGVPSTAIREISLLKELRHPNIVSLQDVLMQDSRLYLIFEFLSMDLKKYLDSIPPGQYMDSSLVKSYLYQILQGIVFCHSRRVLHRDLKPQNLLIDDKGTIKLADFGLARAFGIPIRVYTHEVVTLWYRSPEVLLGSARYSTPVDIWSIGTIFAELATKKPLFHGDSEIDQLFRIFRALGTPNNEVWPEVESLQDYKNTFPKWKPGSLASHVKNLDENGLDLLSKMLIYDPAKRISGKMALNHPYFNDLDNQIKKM
T1 sequence (P14635 whole entry partner): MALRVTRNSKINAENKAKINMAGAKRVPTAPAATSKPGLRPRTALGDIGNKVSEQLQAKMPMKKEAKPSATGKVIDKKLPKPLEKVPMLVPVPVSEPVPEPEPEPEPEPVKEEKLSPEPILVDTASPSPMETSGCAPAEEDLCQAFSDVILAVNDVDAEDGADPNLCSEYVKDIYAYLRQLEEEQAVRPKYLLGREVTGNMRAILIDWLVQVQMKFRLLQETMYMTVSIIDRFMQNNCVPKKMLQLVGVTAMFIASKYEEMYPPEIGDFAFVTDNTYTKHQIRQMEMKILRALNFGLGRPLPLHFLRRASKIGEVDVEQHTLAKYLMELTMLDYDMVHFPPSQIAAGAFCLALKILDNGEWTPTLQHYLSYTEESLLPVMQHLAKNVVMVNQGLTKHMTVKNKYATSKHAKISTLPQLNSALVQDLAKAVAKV
T2 sequence (O08775 786-1343): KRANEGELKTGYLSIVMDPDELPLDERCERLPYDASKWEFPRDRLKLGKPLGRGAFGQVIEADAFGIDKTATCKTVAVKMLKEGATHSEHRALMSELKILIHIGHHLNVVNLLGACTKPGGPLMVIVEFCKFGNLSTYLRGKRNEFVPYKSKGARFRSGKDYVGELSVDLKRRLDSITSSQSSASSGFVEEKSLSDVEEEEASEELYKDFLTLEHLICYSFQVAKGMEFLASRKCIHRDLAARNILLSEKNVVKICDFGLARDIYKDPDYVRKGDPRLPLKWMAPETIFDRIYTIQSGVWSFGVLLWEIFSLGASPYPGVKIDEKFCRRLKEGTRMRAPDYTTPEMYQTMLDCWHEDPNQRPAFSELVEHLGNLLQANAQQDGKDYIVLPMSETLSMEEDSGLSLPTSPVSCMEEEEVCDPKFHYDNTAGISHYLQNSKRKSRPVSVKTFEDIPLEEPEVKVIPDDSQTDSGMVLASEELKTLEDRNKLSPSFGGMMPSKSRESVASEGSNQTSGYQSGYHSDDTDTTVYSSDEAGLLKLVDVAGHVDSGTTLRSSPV

For the compound `Nc1nc(Nc2ccc(S(N)(=O)=O)cc2)nn1C(=O)c1c(F)ccc(F)c1F` [Cpd 3, 4-[[5-amino-1-(2,3,6-trifluorobenzoyl)-1H-1,2,4-triazol-3-yl]amino]-benzenesulfonamide], the IC50 – broadly, the midpoint of a concentration-inhibition curve – on CDK1:Cyclin-B was 0.008 µM; in test [1], 0.332 µM.

For the compound `Nc1nc(Nc2ccc(S(N)(=O)=O)cc2)nn1C(=O)c1ccccc1F` [Cpd 4, 4-[[5-amino-1-(2-fluorobenzoyl)-1H-1,2,4-triazol-3-yl]amino]-benzenesulfonamide], the half-maximal inhibitory concentration (IC50) was found to be 0.0223 µM at CDK1:Cyclin-B and 0.387 µM in test [1].

As to `Nc1nc(Nc2ccc(S(N)(=O)=O)cc2)nn1C(=O)c1ccc(F)cc1F` [Cpd 5, 4-[[5-amino-1-(2,4-difluorobenzoyl)-1H-1,2,4-triazol-3-yl]amino]-benzenesulfonamide], the results for the IC50 (at CDK1:Cyclin-B; in test [1]) were 0.144 µM and 0.521 µM, respectively.

On to `Nc1nc(Nc2ccc(S(N)(=O)=O)cc2)nn1C(=O)c1c(F)cccc1C(F)(F)F` [Cpd 6, 4-[[5-amino-1-[2-fluoro-6-(trifluoromethyl)benzoyl]-1H-1,2,4-triazol-3-yl]amino]-benzenesulfonamide], for which the IC50 was found to be 0.0394 µM on CDK1:Cyclin-B and 8.14 µM in test [1].

As to `Nc1nc(Nc2ccc(S(N)(=O)=O)cc2)nn1C(=O)c1c(Cl)cccc1Cl` [Cpd 7, 4-[[5-amino-1-(2,6-dichlorobenzoyl)-1H-1,2,4-triazol-3-yl]amino]-benzenesulfonamide], the IC50 at CDK1:Cyclin-B is 0.057 µM; in test [1], above 10 µM.

In the case of `Nc1nc(Nc2ccc(S(N)(=O)=O)cc2)nn1C(=O)c1c(Cl)cc(Cl)cc1Cl` [Cpd 8, 4-[[5-amino-1-(2,4,6-trichlorobenzoyl)-1H-1,2,4-triazol-3-yl]amino]-benzenesulfonamide], the results for the IC50 (at CDK1:Cyclin-B; in test [1]) were 0.136 µM and above 100 µM, respectively.

In the case of `Nc1nc(Nc2ccc(S(N)(=O)=O)cc2)nn1C(=O)c1ccccc1[N+](=O)[O-]` [Cpd 9, 4-[[5-amino-1-(2-nitrobenzoyl)-1H-1,2,4-triazol-3-yl]amino]-benzenesulfonamide], the IC50 stood at 0.039 µM at CDK1:Cyclin-B and 1.6 µM in test [1].

As to `COc1cccc(OC)c1C(=O)n1nc(Nc2ccc(S(N)(=O)=O)cc2)nc1N` [Cpd 10, 4-[[5-amino-1-(2,6-dimethoxybenzoyl)-1H-1,2,4-triazol-3-yl]amino]-benzenesulfonamide], the concentration for half-maximal inhibition (IC50) on CDK1:Cyclin-B was 0.252 µM; in test [1] it was 0.491 µM.

With `Cc1cc(C)c(C(=O)n2nc(Nc3ccc(S(N)(=O)=O)cc3)nc2N)c(C)c1` [Cpd 11, 4-[[5-amino-1-(2,4,6-trimethylbenzoyl)-1H-1,2,4-triazol-3-yl]amino]-benzenesulfonamide], the figures for the IC50 (on CDK1:Cyclin-B; in test [1]) were 0.305 µM and above 100 µM, respectively.

`Nc1nc(Nc2ccc(S(N)(=O)=O)cc2)nn1C(=O)c1ccccc1` [Cpd 12, 4-[(5-amino-1-benzoyl-1H-1,2,4-triazol-3-yl)amino]-benzenesulfonamide]: the IC50 came to 0.0454 µM at CDK1:Cyclin-B and 0.0841 µM in test [1].

Regarding `Nc1nc(Nc2ccc(S(=O)(=O)N3CCCCC3)cc2)nn1C(=O)c1c(F)cccc1F` [Cpd 13, 1-(2,6-difluorobenzoyl)-N^3-[4-(1-piperidinylsulfonyl)phenyl]-1H-1,2,4-triazole-3,5-diamine], the values for the IC50 (at CDK1:Cyclin-B; in test [1]) were 0.535 µM and 0.532 µM, respectively.

Consider `CCOc1ccsc1C(=O)n1nc(Nc2ccc(S(N)(=O)=O)cc2)nc1N` [Cpd 18, 4-[[5-amino-1-[(3-ethoxy-2-thienyl)carbonyl]-1H-1,2,4-triazol-3-yl]amino]-benzenesulfonamide], for which the IC50 turned out to be 0.067 µM at CDK1:Cyclin-B and 0.058 µM in test [1].

Turning to `CC(=O)Nc1ccsc1C(=O)n1nc(Nc2ccc(S(N)(=O)=O)cc2)nc1N` [Cpd 19, N-[2-[[5-amino-3-[[4-(aminosulfonyl)phenyl]amino]-1H-1,2,4-triazol-1-yl]carbonyl]-3-thienyl]-acetamide], the values for the IC50 (on CDK1:Cyclin-B; in test [1]) were 0.0339 µM and 0.291 µM, respectively.

For the compound `Cc1ccc(C(=O)n2nc(Nc3ccc(S(N)(=O)=O)cc3)nc2N)s1` [Cpd 20, 4-[[5-amino-1-[(5-methyl-2-thienyl)carbonyl]-1H-1,2,4-triazol-3-yl]amino]-benzenesulfonamide], the IC50 on CDK1:Cyclin-B is 0.0044 µM; in test [1] it was 0.031 µM.

Consider `Nc1nc(Nc2ccc(S(N)(=O)=O)cc2)nn1C(=O)c1ccc(Br)s1` [Cpd 21, 4-[[5-amino-1-[(5-bromo-2-thienyl)carbonyl]-1H-1,2,4-triazol-3-yl]amino]-benzenesulfonamide], for which the IC50 was found to be 0.0088 µM on CDK1:Cyclin-B and 0.023 µM in test [1].

As to `CC(=O)c1ccc(C(=O)n2nc(Nc3ccc(S(N)(=O)=O)cc3)nc2N)s1` [Cpd 22, 4-[[1-[(5-acetyl-2-thienyl)carbonyl]-5-amino-1H-1,2,4-triazol-3-yl]amino]-benzenesulfonamide], the results for the IC50 (on CDK1:Cyclin-B; in test [1]) were 0.0318 µM and 0.233 µM, respectively.

For the compound `Cc1ccsc1C(=O)n1nc(Nc2ccc(S(=O)(=O)N3CCCCC3)cc2)nc1N` [Cpd 24, 1-[(3-methyl-2-thienyl)carbonyl]-N^3-[4-(1-piperidinylsulfonyl)phenyl]-1H-1,2,4-triazole-3,5-diamine], the IC50 on CDK1:Cyclin-B stood at 0.282 µM; in test [1], 0.0674 µM.

As for `Nc1nc(Nc2ccc(S(N)(=O)=O)cc2)nn1C(=O)c1ccco1` [Cpd 25, 4-[[5-amino-1-(2-furanylcarbonyl)-1H-1,2,4-triazol-3-yl]amino]-benzenesulfonamide], the IC50 at CDK1:Cyclin-B is 0.0195 µM; in test [1], 0.064 µM.

As for `Nc1nc(Nc2ccc(S(N)(=O)=O)cc2)nn1C(=O)c1ccno1` [Cpd 26, 4-[[5-amino-1-(5-isoxazolylcarbonyl)-1H-1,2,4-triazol-3-yl]amino]-benzenesulfonamide], the results for the half-inhibitory concentration (IC50) (at CDK1:Cyclin-B; in test [1]) were 18.4 µM and around 100 µM, respectively.

Consider `Nc1nc(Nc2ccc(S(N)(=O)=O)cc2)nn1C(=O)c1ccccn1` [Cpd 27, 4-[[5-amino-1-(2-pyridinylcarbonyl)-1H-1,2,4-triazol-3-yl]amino]-benzenesulfonamide], for which the half-inhibitory concentration (IC50) is around 100 µM on CDK1:Cyclin-B and above 100 µM in test [1].
